Measurements published in patent US10988459B2 (priority 2015, dated 2021).

Target: human RIP1 kinase domain (2-375) (Homo sapiens (Human), UniProt Q13546)
Test: biochemical
Format: biochemical
Conditions: Table 1; apparent Ki (Morrison tight-binding fit); 50 nM RIP1 kinase domain, 50 uM ATP, 2 hours incubation; read-out: RIP1 Ki
Outline: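 Ki^app comes from Morrison tight-binding fits of fractional activity versus compound concentration. Activity was read as ADP production, via tracer displacement lowering fluorescence polarization (633 nm laser). Conditions: 2 h, 50 nM insect-cell-expressed enzyme, 50 uM ATP, 30 mM MgCl2, 1 mM DTT, 0.5% DMSO, pH 7.5 Hepes.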

human RIP1 kinase domain (2-375), sequence (Q13546 2-375): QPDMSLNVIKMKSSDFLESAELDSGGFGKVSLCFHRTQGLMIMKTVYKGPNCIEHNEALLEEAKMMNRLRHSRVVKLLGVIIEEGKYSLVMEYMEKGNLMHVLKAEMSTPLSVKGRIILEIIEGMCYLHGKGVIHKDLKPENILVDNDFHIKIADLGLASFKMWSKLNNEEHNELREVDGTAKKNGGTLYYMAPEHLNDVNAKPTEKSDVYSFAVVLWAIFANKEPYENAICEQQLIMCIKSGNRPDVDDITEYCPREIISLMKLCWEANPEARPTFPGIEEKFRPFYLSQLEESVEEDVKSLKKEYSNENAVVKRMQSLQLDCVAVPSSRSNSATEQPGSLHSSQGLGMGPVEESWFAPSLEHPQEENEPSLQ

Row | SMILES | Ki [nM]
1 | CCC1CCc2n[nH]c(C(=O)N[C@H]3COc4ccccc4N(C)C3=O)c2C1 (stereo partly drawn) [Example 74, 5-ethyl-N-((S)-5-methyl-4-oxo-2,3,4,5-tetrahydrobenzo[b][1,4]oxazepin-3-yl)-4,5,6,7-tetrahydro-2H-indazole-3-carboxamide] | 13
2 | CN1C(=O)[C@@H](NC(=O)c2cc3c(cn2)CCCC3)COc2ccccc21 [Example 23, (S)—N-(5-methyl-4-oxo-2,3,4,5-tetrahydrobenzo[b][1,4]oxazepin-3-yl)-5,6,7,8-tetrahydroisoquinoline-3-carboxamide] | 2000
3 | CN1C(=O)[C@@H](NC(=O)c2n[nH]c3ccccc23)COc2ccccc21 [Example 33, (S)—N-(5-methyl-4-oxo-2,3,4,5-tetrahydrobenzo[b][1,4]oxazepin-3-yl)-1H-indazole-3-carboxamide] | 3500

Same assay, conditions: Table 5; apparent Ki (Morrison tight-binding fit); 50 nM RIP1 kinase domain, 50 uM ATP, 2 hours incubation; read-out: Ki

Row | Ki [nM] | SMILES
4 | 68 | CN1C(=O)[C@@H](NC(=O)c2ncn(Cc3ccccc3)n2)CCn2nc(CNCC(F)(F)F)cc21 (single isomer, unassigned) [Example 789]
5 | 444 | COC1CN(Cc2cc3n(n2)CCC(NC(=O)c2ncn(Cc4ccccc4)n2)C(=O)N3C)C1 (single isomer, unassigned) [Example 722, 1-benzyl-N-[2-[(3-methoxyazetidin-1-yl)methyl]-4-methyl-5-oxo-7,8-dihydro-6H-pyrazolo[1,5-a][1,3]diazepin-6-yl]-1,2,4-triazole-3-carboxamide]
6 | 74 | CN1C(=O)[C@@H](NC(=O)c2ncn(Cc3ccccc3F)n2)CCn2nc(CCN3CCOCC3)cc21 [Example 753]

Same assay, conditions: human RIP1 kinase domain (2-375), 50 uM ATP, 2 hours incubation, Transcreener ADP assay; read-out: RIP1 Ki

Row | Ki [nM] | SMILES
7 | 26.6 | CN1C(=O)[C@@H](NC(=O)c2ncn(Cc3ccccc3)n2)CCn2ccnc21 [Example 151, (S)-1-benzyl-N-(9-methyl-8-oxo-6,7,8,9-tetrahydro-5H-imidazo[1,2-a][1,3]diazepin-7-yl)-1H-1,2,4-triazole-3-carboxamide]
8 | 232 | O=C(NC1CCn2ncc3c2N(CCO3)C1=O)c1ncn(Cc2ccccc2)n1 (stereo not shown) [Example 198, 1-benzyl-N-(6-oxo-4,5,6,7,8,9-hexahydro-3-oxa-1,5a,9a-triazabenzo[cd]azulen-7-yl)-1H-1,2,4-triazole-3-carboxamide]
9 | 25.4 | CN1C(=O)[C@@H](NC(=O)c2ncc3c(n2)C(C)(C)SC3)COc2ccccc21 [Example 218, (S)-7,7-dimethyl-N-(5-methyl-4-oxo-2,3,4,5-tetrahydrobenzo[b][1,4]oxazepin-3-yl)-5,7-dihydrothieno[3,4-d]pyrimidine-2-carboxamide]
10 | 8500 | CC(C)n1ncc2c1OC[C@H](NC(=O)c1cn(Cc3ccc(F)c(F)c3)cn1)C(=O)N2C [Example 180, (S)-1-(3,4-difluorobenzyl)-N-(1-isopropyl-4-methyl-5-oxo-4,5,6,7-tetrahydro-1H-pyrazolo[3,4-b][1,4]oxazepin-6-yl)-1H-imidazole-4-carboxamide]

Same assay, conditions: human RIP1 kinase domain (2-375), Transcreener ADP assay, 50 uM ATP, 2 hours incubation; read-out: RIP1 Ki

Row | Ki [nM] | SMILES
11 | 6610 | CN1C(=O)[C@@H](NC(=O)c2ncn(Cc3ccc(F)cc3)n2)CCn2nc([C@H]3CC3(F)F)cc21 [Example 317, N—((S)-2-((R)-2,2-difluorocyclopropyl)-4-methyl-5-oxo-5,6,7,8-tetrahydro-4-pyrazolo[1,5-a][1,3]diazepin-6-yl)-1-(4-fluorobenzyl)-1H-1,2,4-triazole-3-carboxamide]
12 | 25.3 | CN1C(=O)[C@H](NC(=O)c2ncn(Cc3ccc(F)cc3)n2)CCn2nc([C@H]3CC3(F)F)cc21 [Example 318, N—((R)-2-((R)-2,2-difluorocyclopropyl)-4-methyl-5-oxo-5,6,7,8-tetrahydro-4H-pyrazolo[1,5-a][1,3]diazepin-6-yl)-1-(4-fluorobenzyl)-1H-1,2,4-triazole-3-carboxamide]

Same assay, conditions: tight-binding apparent inhibition constant; human RIP1 kinase domain (2-375) 50 nM, 50 uM ATP, 2 hours; read-out: Ki

Row | SMILES | Ki [nM]
13 | CN1C(=O)[C@@H](NC(=O)c2ncn(CC3(C)CCC3)n2)CCn2nc(C3CC3)cc21 [Example 561] | 100
14 | Cc1ncn2c1N(C)C(=O)[C@H](NC(=O)c1ncn(Cc3ccccc3)n1)CC2 [Example 505, 1-benzyl-N-(3R)-1,9-dimethyl-2-oxo-4,5-dihydro-3H-imidazo[1,5-a][1,3]diazepin-3-yl-1,2,4-triazole-3-carboxamide] | 36
15 | Cc1cc2n(n1)CC[C@H](NC(=O)c1ncn(CC3(C)CCCC3)n1)C(=O)N2C [Example 495, 1-[(1-methylcyclopentyl)methyl]-N-(6S)-2,4-dimethyl-5-oxo-7,8-dihydro-6H-pyrazolo[1,5-a][1,3]diazepin-6-yl-1,2,4-triazole-3-carboxamide] | 130
16 | O=C(N[C@H]1COc2cc(F)cc(F)c2NC1=O)c1ncc2c(n1)C1(CCC1)OC2 [Example 617, N-[(3S)-6,8-difluoro-4-oxo-3,5-dihydro-2H-1,5-benzoxazepin-3-yl]spiro[5H-furo[3,4-d]pyrimidine-7,1′-cyclobutane]-2-carboxamide] | 11
17 | Cc1cc(F)c2c(c1)OC[C@H](NC(=O)c1nc3n(n1)[C@@H](C(C)C)CC3)C(=O)N2 (single isomer, unassigned) [Example 354] | 4.5
18 | CN1C(=O)[C@@H](NC(=O)c2ncn(Cc3ccccc3)n2)CCn2nc(C[C@@H]3CC3(F)F)cc21 [Example 548, 1-benzyl-N-(6S)-4-methyl-5-oxo-2-[(1R)-2,2-difluorocyclopropylmethyl]-7,8-dihydro-6H-pyrazolo[1,5-a][1,3]diazepin-6-yl-1,2,4-triazole-3-carboxamide] | 9.7
19 | CN1C(=O)[C@@H](NC(=O)c2ncn(Cc3ncccc3Cl)n2)CCn2nc(C3CC3)cc21 [Example 658] | 54
20 | CCCC1(C)OCc2cnc(C(=O)N[C@H]3CCn4nccc4N(C)C3=O)nc21 (stereo partly drawn) [Example 566, 7-methyl-7-propyl-N-[(6S)-4-methyl-5-oxo-7,8-dihydro-6H-pyrazolo[1,5-a][1,3]diazepin-6-yl]-5H-furo[3,4-d]pyrimidine-2-carboxamide] | 480

Next, values leading:

Row | Ki [nM] | SMILES
21 | 47 | Cc1ncn2c1N(C)C(=O)[C@H](NC(=O)c1ncn(Cc3c(F)cccc3F)n1)CC2 [Example 581, 1-[(2,6-difluorophenyl)methyl]-N-(3R)-1,9-dimethyl-2-oxo-4,5-dihydro-3H-imidazo[1,5-a][1,3]diazepin-3-yl-1,2,4-triazole-3-carboxamide]
22 | 147 | CN1C(=O)[C@@H](NC(=O)c2nc3n(n2)C(C2CCOCC2)CCC3)COc2ccccc21 (stereo partly drawn) [Example 408, N—((S)-5-methyl-4-oxo-2,3,4,5-tetrahydrobenzo[b][1,4]oxazepin-3-yl)-5-(tetrahydro-2H-pyran-4-yl)-5,6,7,8-tetrahydro-[1,2,4]triazolo[1,5-a]pyridine-2-carboxamide]
23 | 21.2 | CN1C(=O)[C@@H](NC(=O)c2nc3n(n2)[C@H](c2ccccc2)CC3)CCn2nccc21 (single isomer, unassigned) [Example 363]
24 | 29.5 | CCC1CCCc2nc(C(=O)N[C@H]3COc4ccccc4N(C)C3=O)nn21 (stereo partly drawn) [Example 383, 5-ethyl-N—((S)-5-methyl-4-oxo-2,3,4,5-tetrahydrobenzo[b][1,4]oxazepin-3-yl)-5,6,7,8-tetrahydro-[1,2,4]triazolo[1,5-a]pyridine-2-carboxamide]
25 | 56 | CN1C(=O)[C@@H](NC(=O)c2nnc(Cc3ccccc3)[nH]2)CCn2nc([C@H]3CC3(F)F)cc21 (racemic) [Example 672, 5-benzyl-N-[rac-(6S)-4-methyl-5-oxo-2-[rac-(1R)-2,2-difluorocyclopropyl]-7,8-dihydro-6H-pyrazolo[1,5-a] [1,3]diazepin-6-yl]-4H-1,2,4-triazole-3-carboxamide]
